Results taken from patent US8034812B2, “Imidazopyridazine derivative having kinase inhibitory activity and pharmaceutical agent thereof” (Takeda Pharmaceutical Company Limited, priority 2006, dated 2011).

Legend:
BRAF (V600E) enzyme = molecular target: T1, BRAF (V600E) enzyme (Homo sapiens, UniProt P15056, V600E); test: Determination of BRAF (V600E) kinase inhibitory activity ([γ-32P]ATP, GST-MEK1 (K96R) substrate); assay type: biochemical; conditions: read-out: BRAF (V600E) kinase inhibitory rate
T1 construct: area encoding the BRAF kinase domain region, so that the protein contains an N-terminal Flag; made in house; host or cells: SF-21 insect cells, recombinant baculovirus BAC-V600E
T1 sequence (P15056 457-717 V600E limits assumed): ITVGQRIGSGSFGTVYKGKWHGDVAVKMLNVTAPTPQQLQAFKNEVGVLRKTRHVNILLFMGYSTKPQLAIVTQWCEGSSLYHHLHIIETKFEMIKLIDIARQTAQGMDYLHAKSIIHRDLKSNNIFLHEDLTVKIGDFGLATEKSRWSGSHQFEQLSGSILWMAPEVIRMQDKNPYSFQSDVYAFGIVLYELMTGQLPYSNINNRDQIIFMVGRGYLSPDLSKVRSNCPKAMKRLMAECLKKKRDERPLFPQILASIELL
Protocol: Human BRAF gene was cloned by PCR using human Testis cDNA library (Clontech) as a template. The primer used for PCR was prepared from base sequence (Genbank Accession NM_004333) information of BRAF gene by adding a base sequence encoding flag peptide and a recognition sequence of the restriction enzyme to area encoding the BRAF kinase domain region, so that the protein contains an N-terminal Flag. The primer base sequence is shown below.
The PCR reaction was conducted using Pyrobest (Takara Shuzo Co., Ltd). The obtained PCR product was electrophoresed on agarose gel (1%), the DNA fragment amplified by PCR was recovered from the gel, and then digested with restriction enzymes EcoRI and SalI. The DNA treated with the restriction enzymes was electrophoresed on agarose gel (1%), and the obtained DNA fragment was recovered and ligated to plasmid pFASTBAC1 (Invitrogen) digested with restriction enzymes EcoRI and SalI to give expression plasmid pFB-BRAF, and the base sequence of the insert fragment was confirmed. In addition, mutation was introduced into V600E using a Quick change Site Directed Mutagenesis kit (Stratagene). The nucleotide sequences of the primers used are shown in the following.
SF-21 cells were sown at 1×10^6 cells/mL to Sf-900II SFM medium (1 L, Invitrogen) containing 10% fetal bovine serum (Trace), 50 mg/L Gentamicin (Invitrogen) and 0.1% Pluronic F-68 (Invitrogen), and shaking culture was performed using a 2 L volume Erlenmeyer flask at 27° C., 100 rpm. After culturing for 24 hrs, recombinant baculovirus BAC-V600E (13.4 mL) was added to the mixture, and the mixture was further cultured for 3 days. The culture medium was centrifuged at 2,000 rpm for 5 min to give virus-infected cells. The infected cells were washed with a phosphate buffered saline (Invitrogen), centrifuged under the same conditions, and the cells were preserved at −80° C. The cryopreserved cells were thawed in ice, suspended in buffer A (50 mM Tris buffer (30 mL, pH 7.4) containing 20% glycerol, 0.15 M NaCl) supplemented with Complete Protease Inhibitor (Boehringer), and ruptured 3 times with a Polytron homogenizer (Kinematica) at 20,000 rpm for 30 sec. The ruptured medium was clarified by centrifugation at 40,000 rpm for 30 min and filtered with a 0.45 μm filter. The filtrate was passed through a column packed with Anti-FLAG M2 Affinity Gel (4 mL, Sigma) at a flow rate of about 0.5 mL/min. The column was washed with buffer A, and eluted with buffer A containing 100 μg/mL of FLAG peptide. The buffer of this concentrate was exchanged using NAP25 column (Amersham Bioscience) equilibrated with buffer A and the fractions were cryopreserved at −80° C.
A test compound (2.5 μl) dissolved in dimethyl sulfoxide (DMSO) was added to 37.5 μl of a reaction solution (25 mM HEPES (pH 7.5), 10 mM magnesium acetate, 1 mM dithiothreitol) containing BRAF (V600E) enzyme (30 ng) and recombinant type protein GST-MEK1 (K96R) 250 ng, and the mixture was incubated at room temperature for 10 min. ATP solution (10 μl) (2.5 μM ATP, 0.1 μCi [γ-^32P]ATP) was added to the obtained mixture, and the mixture was reacted at room temperature for 20 min. The reaction was quenched by adding 50 μL of ice-cooled 20% trichloroacetic acid (Wako Pure Chemical Industries, Ltd.). The reaction solution was allowed to stand at 4° C. for 30 min, and the acid-precipitable fraction was transferred to GF/C filter plate (Millipore Corporation) using cell harvester (PerkinElmer). The plate was dried at 45° C. for 60 min, and 40 μL of MicroScinti 0 (PerkinElmer) was added thereto. The radioactivity was measured using TopCount (PerkinElmer). The kinase inhibitory rate (%) of the test compound was calculated by the following formula: Inhibitory rate(%)=(1−(count of test compound−blank)÷(control−blank))×100
The count of the solution reacted without addition of the compound was used as a “control”, and the count of the solution without the compound and enzyme was used as a “blank”. […]

[1] = molecular target: T2, PDGFRα intracellular domain protein (Homo sapiens, UniProt P16234); test: Determination of platelet-derived growth factor receptor α (PDGFRα) kinase inhibitory activity (AlphaScreen); assay type: biochemical
T2 construct: 125 ng/ml of PDGFRα intracellular domain protein (UPSTATE); purchased UPSTATE
T2 sequence (P16234 550-1089 limits assumed): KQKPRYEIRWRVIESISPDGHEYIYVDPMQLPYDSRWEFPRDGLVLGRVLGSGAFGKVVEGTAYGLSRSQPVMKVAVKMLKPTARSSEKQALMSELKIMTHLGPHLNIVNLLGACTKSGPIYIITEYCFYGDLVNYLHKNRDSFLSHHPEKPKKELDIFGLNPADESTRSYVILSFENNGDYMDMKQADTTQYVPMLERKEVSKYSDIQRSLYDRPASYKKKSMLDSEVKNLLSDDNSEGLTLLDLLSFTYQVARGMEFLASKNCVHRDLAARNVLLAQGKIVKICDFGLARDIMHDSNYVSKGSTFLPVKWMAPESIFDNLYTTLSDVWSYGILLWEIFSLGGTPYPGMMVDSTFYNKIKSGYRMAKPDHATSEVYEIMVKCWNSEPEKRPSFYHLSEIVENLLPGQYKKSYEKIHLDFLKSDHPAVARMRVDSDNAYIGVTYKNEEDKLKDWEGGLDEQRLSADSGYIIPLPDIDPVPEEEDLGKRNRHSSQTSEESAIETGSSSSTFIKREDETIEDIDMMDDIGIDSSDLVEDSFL
Protocol: (§1) A test compound dissolved in dimethyl sulfoxide (DMSO) was diluted with a buffer (50 mM Tris-HCl (pH 7.5), 5 mM MgCl2, 5 mM MnCl2, 2 mM dithiothreitol, 0.01% Tween-20). To this compound solution (5 μL) was added a buffer (10 μL) containing 125 ng/ml of PDGFRα intracellular domain protein (UPSTATE) and 250 ng/mL of biotin labeled polypeptide biotinyl-poly-Glu:Tyr (4:1) (CIS bio International). At 5 min after mixing kinase enzyme and the compound and biotin labeled polypeptide, to the obtained mixture was added a buffer (10 μL) containing ATP (25 μM), the mixture was allowed to react at 25° C. for 30 min and the reaction was quenched with 25 μL of a stop solution (100 mM EDTA disodium salt, 62.5 mM HEPES buffer (pH 7.4), 250 mM NaCl, 0.1% bovine serum albumin, 10 μg/mL AlphaScreen assay streptavidin donor beads (Streptavidin Donor beads: PerkinElmer), 10 μg/mL AlphaScreen assay anti-phosphotyrosine recognition antibody PT-66 binding acceptor beads (Anti-phosphotyrosine (P-Tyr-66) Acceptor beads: PerkinElmer)). The reaction solution was allowed to stand at 25° C. for 16 hrs, and the wells were counted using a plate reader Fusion™ (PerkinElmer). The kinase inhibitory rate (%) of the test compound was calculated by the following formula: Inhibitory rate(%)=(1−(count of test compound−blank)÷(control−blank))×100
(§2) The count of the solution reacted without addition of the compound was used as a “control”, and the count of the solution without the compound and ATP was used as a “blank”.

[2] = molecular target: T3, VEGFR2 intracellular domain protein (Homo sapiens, UniProt P35968); test: Determination of vascular endothelial growth factor receptor 2 (VEGFR2) kinase inhibitory activity (AlphaScreen); assay type: biochemical; conditions: read-out: VEGFR2 kinase inhibitory rate
T3 construct: made in house; host or cells: SF-21 insect cells, recombinant baculovirus BAC-VEGFR2
T3 sequence (P35968 786-1356 limits assumed): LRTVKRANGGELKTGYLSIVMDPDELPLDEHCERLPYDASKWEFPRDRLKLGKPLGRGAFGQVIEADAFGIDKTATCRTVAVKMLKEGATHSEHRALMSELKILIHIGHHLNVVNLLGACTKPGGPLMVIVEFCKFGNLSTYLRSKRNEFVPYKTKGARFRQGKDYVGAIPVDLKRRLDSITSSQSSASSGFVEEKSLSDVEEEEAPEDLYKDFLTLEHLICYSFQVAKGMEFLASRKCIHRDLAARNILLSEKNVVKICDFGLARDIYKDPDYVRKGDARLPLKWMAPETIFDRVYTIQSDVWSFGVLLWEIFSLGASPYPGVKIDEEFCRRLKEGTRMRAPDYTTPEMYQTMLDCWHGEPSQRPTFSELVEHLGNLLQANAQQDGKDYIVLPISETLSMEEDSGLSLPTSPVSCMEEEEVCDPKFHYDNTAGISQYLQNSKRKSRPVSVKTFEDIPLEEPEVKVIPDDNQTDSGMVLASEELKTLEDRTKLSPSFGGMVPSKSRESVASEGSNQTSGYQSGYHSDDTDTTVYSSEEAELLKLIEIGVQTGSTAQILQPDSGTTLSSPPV
Protocol: Human vascular endothelial growth factor receptor 2 (hereinafter to be referred to as VEGFR2) gene was cloned by PCR using cDNA Libraries Human Placenta (Clontech) as a template. The primer used for PCR was prepared from base sequence (Genbank Accession AF035121) information of VEGFR2 gene by adding a base sequence encoding flag peptide and a recognition sequence of the restriction enzyme to a base sequence (2671-4374 of Genbank Accession AF035121) encoding the VEGFR2 intracellular domain region, so that the protein contains an N-terminal Flag tag. The primer base sequence is shown below.
SF-21 cells were sown at 1×10^6 cells/mL to Sf-900II SFM medium (1 L, Invitrogen) containing 10% fetal bovine serum (trace), 50 mg/L Gentamicin (Invitrogen) and 0.1% Pluronic F-68 (Invitrogen), and shaking culture was performed using a 2 L volume Erlenmeyer flask at 27° C., 100 rpm. After culturing for 24 hrs, recombinant baculovirus BAC-VEGFR2 (13.4 mL) was added to the mixture, and the mixture was further cultured for 3 days. The culture medium was centrifuged at 2,000 rpm for 5 min to give virus-infected cells. The infected cells were washed with a phosphate buffered saline (Invitrogen), centrifuged under the same conditions, and the cells were preserved at −80° C. The cryopreserved cells were thawed in ice, suspended in buffer A (50 mM Tris buffer (30 mL, pH 7.4) containing 20% glycerol, 0.15 M NaCl) supplemented with Complete Protease Inhibitor (Boehringer), and ruptured 3 times with a Polytron homogenizer (Kinematica) at 20,000 rpm for 30 sec. The ruptured medium was clarified by centrifugation at 40,000 rpm for 30 min and filtered with a 0.45 μm filter. The filtrate was passed through a column packed with Anti-FLAG M2 Affinity Gel (4 mL, Sigma) at a flow rate of about 0.5 mL/min. The column was washed with buffer A, and eluted with buffer A containing 100 μg/mL of FLAG peptide. The eluate was concentrated with Vivaspin 20 (Vivascience) having a molecular weight cut off of 30K. The buffer of this concentrate was exchanged using NAP™ 25 column (Amersham Bioscience) equilibrated with buffer A. The fractions containing intracellular domain protein of VEGFR2 were collected, glycerol was added to the final concentration of 50% and cryopreserved at −80° C.
A test compound dissolved in dimethyl sulfoxide (DMSO) was diluted with a buffer (50 mM Tris-HCl (pH 7.5), 5 mM MgCl2, 5 mM MnCl2, 2 mM dithiothreitol, 0.01% Tween-20). To this compound solution (5 μL) was added a buffer (10 μL) containing 50 ng/mL of VEGFR2 intracellular domain protein and 250 ng/mL of biotin labeled polypeptide biotinyl-poly-Glu:Tyr (4:1) (CIS bio International). To the obtained mixture was added a buffer (10 μL) containing ATP (25 μM), the mixture was allowed to react at 25° C. for 5 min and the reaction was quenched with 25 μL of a stop solution (100 mM EDTA disodium salt, 62.5 mM HEPES buffer (pH 7.4), 250 mM NaCl, 0.1% bovine serum albumin, 10 μg/mL AlphaScreen assay streptavidin donor beads (Streptavidin Donor beads: PerkinElmer), 10 μg/mL AlphaScreen assay anti-phosphotyrosine recognition antibody PY-100 binding acceptor beads (Anti-phosphotyrosine (P-Tyr-100) Acceptor beads: PerkinElmer)). The reaction solution was allowed to stand at 25° C. for 16 hrs, and the wells were counted using a plate reader Fusion™ (PerkinElmer). The kinase inhibitory rate (%) of the test compound was calculated by the following formula: Inhibitory rate(%)=(1−(count of test compound−blank)÷(control−blank))×100

[3] = tested on: Human umbilical vein-derived vascular endothelial cells (HUVEC); test: Vascular endothelial cell growth inhibitory test (VEGF-stimulated HUVEC, XTT); assay type: cell-based; conditions: 120 h, 5 days of culture
Protocol: To be specific, HUVEC was suspended in a vascular endothelial cell medium containing the aforementioned 5% bovine fetal serum and plated on a 96 well flat bottom plate by 50 μL (3000 cells) each well. After culture overnight, various concentrations of the test substance and 120 ng/mL of vascular endothelial growth factor (VEGF) were dissolved in a vascular endothelial cell medium containing 5% bovine fetal serum and added to each well by 50 μL. After 5 days of culture, a XTT reagent (Wako Pure Chemical Industries, Ltd.) was added to each well by 10 μL, and the mixture was reacted in an incubator at 37° C., 5% carbon dioxide for 2-3 hr. The absorbance at 450 nm was measured by a microtiter plate reader and the cell growth inhibitory activity was determined.

[4] = molecular target: T4, PDGFRβ intracellular domain protein (Homo sapiens, UniProt P09619); test: Determination of platelet-derived growth factor receptor β (PDGFRβ) kinase inhibitory activity (AlphaScreen); assay type: biochemical
T4 construct: 125 ng/ml of PDGFRβ intracellular domain protein (UPSTATE); purchased UPSTATE
T4 sequence (P09619 554-1106 limits assumed): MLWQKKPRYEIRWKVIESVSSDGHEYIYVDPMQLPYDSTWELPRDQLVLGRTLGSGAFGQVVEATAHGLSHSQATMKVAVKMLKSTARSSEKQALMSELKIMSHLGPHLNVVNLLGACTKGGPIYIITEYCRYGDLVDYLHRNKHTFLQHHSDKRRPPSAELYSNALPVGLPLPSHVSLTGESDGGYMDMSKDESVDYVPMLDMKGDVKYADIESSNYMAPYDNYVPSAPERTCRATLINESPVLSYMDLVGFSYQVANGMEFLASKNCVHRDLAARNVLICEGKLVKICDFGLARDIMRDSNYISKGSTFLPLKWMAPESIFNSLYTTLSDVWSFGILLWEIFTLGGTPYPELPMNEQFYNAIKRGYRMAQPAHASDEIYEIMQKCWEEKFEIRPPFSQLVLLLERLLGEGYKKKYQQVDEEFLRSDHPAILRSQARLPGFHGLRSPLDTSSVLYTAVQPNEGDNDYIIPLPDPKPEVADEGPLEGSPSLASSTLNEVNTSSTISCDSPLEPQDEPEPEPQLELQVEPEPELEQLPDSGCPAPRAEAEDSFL
Protocol: as §1, with “of PDGFRβ” for “of PDGFRα”, “Donor Beads:” for “Donor beads:”, “test compound[…])÷(control−blank))×100” for “test compound−blank)÷(control−blank))×100”
as §2

| inhibition at 1 µM (BRAF (V600E) enzyme) [%] | IC50 [1] [nM] | inhibition at 1 µM [2] [%] | IC50 [4] [nM] | SMILES | IC50 [3] [nM] |
| --- | --- | --- | --- | --- | --- |
| ≥ 90 | – | – | – | CNc1nccc(Nc2cn3nc(Oc4cccc(NC(=O)c5cccc(C(F)(F)F)c5)c4)ccc3n2)n1 [Example 70, N-{3-[(2-{[2-(methylamino)pyrimidin-4-yl]amino}imidazo[1,2-b]pyridazin-6-yl)oxy]phenyl}-3-(trifluoromethyl)benzamide] | – |
| ≥ 90 | – | – | – | O=C(Nc1cccc(Oc2ccc3nc(NC(=O)C4CC4)cn3n2)c1)c1cccc(C(F)(F)F)c1 [Example 319, N-[3-({2-[(cyclopropylcarbonyl)amino]imidazo[1,2-b]pyridazin-6-yl}oxy)phenyl]-3-(trifluoromethyl)benzamide] | – |
| – | ≤ 500 | ≥ 90 | ≤ 500 | Cc1ccc(Oc2ccc3nc(NC(=O)C4CC4)cn3n2)cc1NC(=O)c1scnc1C [Example 298, N-[5-({2-[(cyclopropylcarbonyl)amino]imidazo[1,2-b]pyridazin-6-yl}oxy)-2-methylphenyl]-4-methyl-1,3-thiazole-5-carboxamide] | ≤ 500 |
| – | ≤ 500 | ≥ 90 | ≤ 500 | Cc1cc(C(=O)Nc2cc(Oc3ccc4nc(NC(=O)C5CC5C)cn4n3)ccc2F)n(C)n1 (centres unmarked) [Example 243, N-{2-fluoro-5-[(2-{[(2-methylcyclopropyl)carbonyl]amino}imidazo[1,2-b]pyridazin-6-yl)oxy]phenyl}-1,3-dimethyl-1H-pyrazole-5-carboxamide] | ≤ 500 |
| – | ≤ 500 | ≥ 90 | ≤ 500 | Cc1cc(C(=O)Nc2cc(Oc3ccc4nc(NC(=O)C5CC5)cn4n3)ccc2F)n(C)n1 [Example 148, N-[5-({2-[(cyclopropylcarbonyl)amino]imidazo[1,2-b]pyridazin-6-yl}oxy)-2-fluorophenyl]-1,3-dimethyl-1H-pyrazole-5-carboxamide] | ≤ 500 |
